The text below walks through data of US3993771A (priority 1974, dated 1976).

The structures appear in SMILES notation. ≈ marks a conversion by molar mass, not a printed value. Like-named read-outs stand apart in the source and are kept apart here.

For series [1], the system named is Pyricularia oryzae. The series is classed as in vivo.
The test system of series [2] is rice plants (var.: Kinki No. 33).
The subject of series [3] is Pyricularia oryzae. It counts as in vivo. To be noted: preventive.
Series [4] deals with rice plants (var.: Kinki No. 33). Conditions: preventive test.
The subject of series [5] is Pyricularia oryzae. Briefly: microbe, parasite or virus in culture. The series is classed as cell-based. To be noted: for Diameter of mycelium / Diameter of mycelium (symbol): 27° C., 2 weeks; for Diameter of mycelium: untreated 63.5 m/m; for MIC: Pyricularia oryzae, 336 h, read-out: MIC (minimum inhibitory concentration on mycelial growth).
Setting [6] is: curative, concentration of active ingredient 200 ppm.
Setting [7] is: concentration of active ingredient 100 ppm.
Setting [8] is: curative, concentration of active ingredient 500 ppm.
The mark [9] stands for this setting: concentration of active ingredient 500 ppm.

For `Cc1ccccc1C=C1CCOC1=O` [Compound 1], the results for the Disease control in the series on Pyricularia oryzae [1] (setting [6]) and in the series with Pyricularia oryzae [3] (setting [7]) were 99% and 100%, respectively. Further, the Disease severity with Pyricularia oryzae [1] (setting [6]) was 1.3%; in the series with Pyricularia oryzae [3] (setting [7]), 0%. Further, the Phytotoxicity entry was “no” in series [2] (curative test, 200 ppm) and “no” in series [4] (100 ppm). Also, the Diameter of mycelium in the series on Pyricularia oryzae [5] (2 ppm), with Pyricularia oryzae [5] (10 ppm), in the series with Pyricularia oryzae [5] (50 ppm) and with Pyricularia oryzae [5] (250 ppm) was 0 m/m in each case. Also, the MIC with Pyricularia oryzae [5] is under 2 µg/mL.

Consider `O=C1OCCC1=Cc1ccccc1O` [Control (iii), reference compound], for which the Disease control in the series on Pyricularia oryzae [1] (setting [8]) came to 0%; in the series with Pyricularia oryzae [3] (setting [9]), 10%. The Disease severity in the series on Pyricularia oryzae [1] (setting [8]) was 97.5%; in the series with Pyricularia oryzae [3] (setting [9]) it was 90.0%. Moreover, the Phytotoxicity result in series [4] (500 ppm) was “no”. Moreover, the Diameter of mycelium in the series on Pyricularia oryzae [5] (2 ppm) is 65.0 m/m; in the series on Pyricularia oryzae [5] (10 ppm) it was 55.0 m/m; in the series on Pyricularia oryzae [5] (50 ppm), 40.0 m/m; in the series with Pyricularia oryzae [5] (250 ppm) it was 11.0 m/m. Also, the MIC in the series on Pyricularia oryzae [5] is over 250 µg/mL.

Consider `CC1CC(=Cc2c(F)cccc2Cl)C(=O)O1` (stereo not drawn) [Compound 3, α-(2-chloro-6-fluorobenzylidene)-γ-valerolactone], for which the Disease control in the series on Pyricularia oryzae [1] (setting [6]) and with Pyricularia oryzae [3] (setting [7]) was 100% throughout. Further, the Disease severity in the series with Pyricularia oryzae [1] (setting [6]) and in the series on Pyricularia oryzae [3] (setting [7]) was 0% in each case. In addition, in series [4] (100 ppm), the Phytotoxicity result was “no”. The Diameter of mycelium in the series on Pyricularia oryzae [5] (2 ppm), with Pyricularia oryzae [5] (10 ppm), with Pyricularia oryzae [5] (50 ppm) and with Pyricularia oryzae [5] (250 ppm) was 0 m/m throughout. Moreover, the MIC with Pyricularia oryzae [5] was under 2 µg/mL.

With `CC1CC(=Cc2ccccc2Cl)C(=O)O1` (stereo not drawn) [Compound 6, α-(o-chlorobenzylidene)-γ-valerolactone], the Disease control with Pyricularia oryzae [1] (setting [6]) and in the series on Pyricularia oryzae [3] (setting [7]) was 100% each time. For the same molecule, the Disease severity in the series on Pyricularia oryzae [1] (setting [6]) and in the series with Pyricularia oryzae [3] (setting [7]) was 0% throughout. Besides, in series [4] (100 ppm), the Phytotoxicity result is reported as “no”. For the same molecule, the Diameter of mycelium in the series with Pyricularia oryzae [5] (2 ppm), with Pyricularia oryzae [5] (10 ppm), with Pyricularia oryzae [5] (50 ppm) and in the series with Pyricularia oryzae [5] (250 ppm) was 0 m/m each time. For the same molecule, the MIC with Pyricularia oryzae [5] was under 2 µg/mL.

Turning to `COc1ccccc1C=C1CCOC1=O` [Control (iv), reference compound], the Disease control in the series with Pyricularia oryzae [1] (setting [8]) is 0%; in the series with Pyricularia oryzae [3] (setting [9]) it was 2%. In addition, the Disease severity in the series with Pyricularia oryzae [1] (setting [8]) was found to be 100.0%; with Pyricularia oryzae [3] (setting [9]), 97.5%. In addition, the Phytotoxicity entry in series [2] (curative test, 500 ppm) is on record as “no”; in series [4] (500 ppm), “no”. Further, the Diameter of mycelium in the series with Pyricularia oryzae [5] (2 ppm) worked out at 63.0 m/m; with Pyricularia oryzae [5] (10 ppm) it was 48.5 m/m; in the series on Pyricularia oryzae [5] (50 ppm), 31.5 m/m. For the same molecule, in the series with Pyricularia oryzae [5] (250 ppm), the “Diameter of mycelium (symbol)” value is “±”. In the series on Pyricularia oryzae [5], the MIC was about 250 µg/mL (≈ 1220 µM).

On to `O=C1OCCC1=Cc1ccccc1` [Control (ii), reference compound], for which the Disease control in the series on Pyricularia oryzae [1] (setting [8]) was 0%; with Pyricularia oryzae [3] (setting [9]), 7%. Further, the Disease severity worked out at 97.5% in the series with Pyricularia oryzae [1] (setting [8]) and 93.8% with Pyricularia oryzae [3] (setting [9]). For the same molecule, in series [4] (500 ppm), the Phytotoxicity result is given as “no”. The Diameter of mycelium was 68.5 m/m in the series on Pyricularia oryzae [5] (2 ppm), 49.0 m/m in the series with Pyricularia oryzae [5] (10 ppm) and 35.5 m/m in the series with Pyricularia oryzae [5] (50 ppm). For the same molecule, the “Diameter of mycelium (symbol)” value in the series on Pyricularia oryzae [5] (250 ppm) was “±”. The MIC with Pyricularia oryzae [5] is about 250 µg/mL (≈ 1440 µM).

Turning to `CCc1ccccc1C=C1CC(C)OC1=O` (stereo not drawn) [Compound 14], the Disease control in the series with Pyricularia oryzae [1] (setting [6]) and with Pyricularia oryzae [3] (setting [7]) was 100% throughout. The Disease severity with Pyricularia oryzae [1] (setting [6]) and with Pyricularia oryzae [3] (setting [7]) was 0% throughout. Also, the Phytotoxicity result in series [4] (100 ppm) is “no”. The “Diameter of mycelium (symbol)” value in the series on Pyricularia oryzae [5] (2 ppm) is on record as “±”. Besides, the Diameter of mycelium in the series with Pyricularia oryzae [5] (10 ppm), in the series on Pyricularia oryzae [5] (50 ppm) and in the series on Pyricularia oryzae [5] (250 ppm) was 0 m/m in each case. The MIC with Pyricularia oryzae [5] is about 2 µg/mL (≈ 9.25 µM).

Take `CCOP(=O)(Sc1ccccc1)Sc1ccccc1` [Commercial fungicide C, O-ethyl-S,S-diphenyl-phosphorodithiolate, reference compound]: in the series with Pyricularia oryzae [1] (in vivo), the Disease control worked out at 92% and the Disease severity is 7.5%. Also, the Phytotoxicity entry in series [2] (in vivo) is reported as “no”.
